{"source": "patent US8883797B2", "about": "“Metalloenzyme inhibitor compounds” (Viamet Pharmaceuticals, Inc., priority 2011, dated 2014)", "key": {"[1]": {"system": "C. albicans", "assay": "Minimum Inhibitory Concentration (MIC) (C. albicans), CLSI M27-A2", "assay_type": "cell-based", "conditions": "Candida albicans; about 50% growth reduction; approx. 48 h at 35 °C", "experimental": "A. Minimum Inhibitory Concentration (MIC) (C. albicans) Compounds of the present disclosure were assessed for their ability to inhibit the growth of common strains of fungus, C. albicans using a standardized procedure (CLSI M27-A2). Stock solutions of the test compounds and standards were prepared in DMSO at 1,600 μg/mL (C. albicans). Eleven, serial, one-half dilutions of compounds were prepared in 96-well plates in RPMI+MOPS. The assay concentration ranges were 8-0.001 μg/mL (C. albicans). Cell suspensions of C. albicans were prepared and added to each well at concentrations of approximately 3.7×10^3 colony-forming-units per milliliter (cfu/mL). All testing was in duplicate. The inoculated plates were incubated for approximately 48 h at 35±1° C. At the completion of incubation the wells of each plate were evaluated visually for the presence of fungal growth. […] For QC purposes C. krusei isolate ATCC 6258 (4.0×10^3 cfu/mL) was included in the VOR assay."}, "[2]": {"biological_target": "CYP2C19 (Homo sapiens (Human), UniProt P33261)", "sequence (P33261 whole entry)": "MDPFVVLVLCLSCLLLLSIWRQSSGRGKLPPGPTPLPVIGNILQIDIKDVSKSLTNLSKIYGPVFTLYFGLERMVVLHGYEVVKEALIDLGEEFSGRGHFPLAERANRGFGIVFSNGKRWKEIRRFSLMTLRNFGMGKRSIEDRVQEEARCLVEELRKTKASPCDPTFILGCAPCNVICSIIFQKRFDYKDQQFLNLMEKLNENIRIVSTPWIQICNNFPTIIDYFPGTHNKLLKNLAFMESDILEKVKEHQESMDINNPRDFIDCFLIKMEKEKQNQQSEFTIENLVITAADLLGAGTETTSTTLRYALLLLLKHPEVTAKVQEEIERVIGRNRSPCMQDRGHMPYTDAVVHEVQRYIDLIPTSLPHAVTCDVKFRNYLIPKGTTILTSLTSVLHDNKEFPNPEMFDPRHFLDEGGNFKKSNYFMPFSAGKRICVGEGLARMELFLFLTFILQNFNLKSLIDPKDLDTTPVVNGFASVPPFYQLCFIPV", "assay": "biochemical", "protocol": "(§1) B Inhibition of Liver Cytochrome P450 Enzymes\n(§2) Solutions of each test compound were separately prepared at concentrations of 20000, 6000, 2000, 600, 200, and 60 μM by serial dilution with DMSO:MeCN (50:50 v/v). The individual test compound solutions were then diluted 20-fold with DMSO:MeCN:deionized water (5:5:180 v/v/v) to concentrations of 1000, 300, 100, 30, 10, and 3 μM. Mixtures of isozyme inhibitors (sulfaphenazole, tranylcypromine, and ketoconazole as specific inhibitors of isozymes 2C9, 2C19, and 3A4, respectively) were prepared containing each inhibitor at concentrations of 6000, 2000, 600, 200, 60, 20, 6, and 2 μM by serial dilution with DMSO:ACN (50:50 v/v). […]\n(§3) Pooled human liver microsome suspension (20 mg/mL) was diluted with phosphate buffer to obtain a 5 mg/mL suspension. […] Separate stock solutions of each substrate were prepared in DMSO:MeCN (50:50 v/v), mixed, and diluted in phosphate buffer to obtain a single solution containing each substrate at five times its experimentally determined Km concentration. […]\n(§4) Substrate solution and microsome suspension were combined in a 1:1 volume ratio, mixed, and distributed to reaction wells of a PCR plate. […] A portion of the supernatant was analyzed by gradient reverse-phase HPLC with detection by electrospray ionization triple quadrupole mass spectrometry in the positive ion mode. […]"}, "[3]": {"biological_target": "CYP2C9 (Homo sapiens (Human), UniProt P11712)", "sequence (P11712 whole entry)": "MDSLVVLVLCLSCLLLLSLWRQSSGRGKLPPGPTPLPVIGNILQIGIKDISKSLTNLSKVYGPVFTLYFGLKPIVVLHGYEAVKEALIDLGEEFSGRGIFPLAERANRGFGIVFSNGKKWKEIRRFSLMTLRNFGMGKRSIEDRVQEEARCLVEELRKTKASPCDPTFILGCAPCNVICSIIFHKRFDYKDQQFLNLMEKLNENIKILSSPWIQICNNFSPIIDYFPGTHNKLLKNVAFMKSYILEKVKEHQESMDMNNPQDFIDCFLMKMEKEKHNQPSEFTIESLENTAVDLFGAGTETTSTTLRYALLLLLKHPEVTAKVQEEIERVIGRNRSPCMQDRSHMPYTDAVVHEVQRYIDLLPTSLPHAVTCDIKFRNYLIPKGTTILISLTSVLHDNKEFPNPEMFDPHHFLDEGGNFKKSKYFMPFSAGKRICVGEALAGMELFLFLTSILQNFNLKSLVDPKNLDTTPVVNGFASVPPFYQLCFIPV", "assay": "biochemical", "protocol": "as §1, §2, §3, §4"}, "[4]": {"biological_target": "CYP3A4 (Homo sapiens (Human), UniProt P08684)", "sequence (P08684 whole entry)": "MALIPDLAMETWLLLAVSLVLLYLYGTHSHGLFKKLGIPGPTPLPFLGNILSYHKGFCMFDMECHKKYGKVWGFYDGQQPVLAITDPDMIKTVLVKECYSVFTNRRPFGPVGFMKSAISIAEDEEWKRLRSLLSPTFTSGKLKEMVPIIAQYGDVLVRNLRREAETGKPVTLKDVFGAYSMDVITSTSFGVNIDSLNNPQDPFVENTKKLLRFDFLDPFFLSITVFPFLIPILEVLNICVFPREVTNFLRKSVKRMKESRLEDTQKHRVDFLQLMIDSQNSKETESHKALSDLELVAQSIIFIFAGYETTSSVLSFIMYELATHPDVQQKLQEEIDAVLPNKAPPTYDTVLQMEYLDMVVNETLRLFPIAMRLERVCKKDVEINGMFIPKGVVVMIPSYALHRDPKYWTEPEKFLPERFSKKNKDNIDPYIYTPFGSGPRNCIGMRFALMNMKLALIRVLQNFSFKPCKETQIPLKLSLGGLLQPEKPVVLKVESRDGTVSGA", "assay": "biochemical", "protocol": "as §1, §2, §3, §4"}}}
{"smiles": "OC(Cn1cnnn1)(c1ccc(F)cc1F)C(F)(F)c1ccc2cc(Br)ccc2n1", "note": "(stereo not drawn) [Compound 9, 1-(6-Bromoquinolin-2-yl)-2-(2,4-difluorophenyl)-1,1-difluoro-3-(1H-tetrazol-1-yl)propan-2-ol]", "values": [{"measurement": "MIC", "setting": "[1]", "result": 0.016, "unit": "µg/mL"}, {"measurement": "IC50", "setting": "[2]", "result": 12, "unit": "µM"}, {"measurement": "IC50", "setting": "[3]", "result": 13, "unit": "µM"}, {"measurement": "IC50", "setting": "[4]", "result": 11, "unit": "µM"}]}
{"smiles": "OC(Cn1cnnn1)(c1ccc(F)cc1F)C(F)(F)c1cnc2cc(Cl)ccc2n1", "note": "(stereo not drawn) [Compound 10, 1-(6-Chloroquinoxalin-2-yl)-2-(2,4-difluorophenyl)-1,1-difluoro-3-(1H-tetrazol-1-yl)propan-2-ol]", "values": [{"measurement": "MIC", "setting": "[1]", "result": 0.125, "unit": "µg/mL"}, {"measurement": "IC50", "setting": "[2]", "result": 29, "unit": "µM"}, {"measurement": "IC50", "setting": "[3]", "result": 42, "unit": "µM"}, {"measurement": "IC50", "setting": "[4]", "result": 45, "unit": "µM"}]}
{"smiles": "C[C@@H](c1ncncc1F)[C@](O)(Cn1cncn1)c1ccc(F)cc1F", "note": "[Voriconazole, reference compound]", "values": [{"measurement": "MIC", "setting": "[1]", "result": 0.016, "unit": "µg/mL"}]}
